Read-outs that look alike come from different tables or passages of the source.
How the values were obtained:
Jurkat T cells = assay: DMOG treatment of Jurkat T cells expressing CABIN1 peptide, immunoprecipitation and Western blotting; format: cell-based
Description: In FIG. 6A, Jurkat T cells expressing HA-mCherry-tagged CABIN1 peptide were treated with DMOG for 12 hours in a dose-dependent manner. In FIG. 6B, Jurkat T cells expressing HA-mCherry-tagged CABIN1 peptide were treated with 500 μM DMOG over time. Each cell lysate was immunoprecipitated with HA antibodies, and CNA bound to CABIN1 peptides was detected by Western blotting. HIF-1α was used as a positive control for DMOG treatment. In FIG. 6C, HEK293T cells were transfected with GST-tagged peptides and subjected to GST pull-down assay. Hydroxyproline and O-linked glycosylation of each peptide were detected by Western blotting. NC: negative control.
(§1) Cells were lysed in IP150 buffer and immunoprecipitated Flag- and HA-tagged proteins using Anti-FLAG® M2 Affinity Gel (Sigma-Aldrich) and Pierce™ Anti-HA Agarose (Thermo Fisher Scientific), respectively. Conventional methods were used to construct the buffer and subsequent processes (Kim, H. J. et al. Nuclear Acids Res. 46, 6544-6560 (2018)). To quantify the Western blotting results, band regions were measured using ImageJ (https://imagej.nih.gov/ij/).

p38a [1] = target: T1, p38a (Homo sapiens, UniProt Q16539); assay: p38 inhibitor treatment of Jurkat T cells expressing CABIN1 peptide, immunoprecipitation and Western blotting; format: cell-based; design: endogenous in cells; host or cells: Jurkat T (E6-1); details: 10 μM, 16 hours
Description: In FIG. 8A, Jurkat T cells expressing HA-mCherry-tagged CABIN1 peptide were treated with 40 nM PMA in a time-dependent manner. Phosphorylated threonine in peptides immunoprecipitated with HA antibody was detected with [PXpTP] antibody. […] In FIG. 8G, Jurkat T cells expressing HA-mCherry-tagged CABIN1 peptide were treated with 10 μM p38a inhibitor for 16 hours. Immunoprecipitation was performed with HA antibody and detected by Western blotting. In FIG. 8H, phosphorylated threonine and peptide-bound CNA in FIG. 8G were measured using ImageJ, and the ratio of phosphorylation and calcineurin bound to CABIN1 peptide was calculated (n=6). The values shown are mean±standard deviation. Statistical differences were determined using one-way analysis of variance. * p<0.05, ** p<0.01, *** p<0.001, CBB: Coomassie Brilliant Blue, NC: negative control.
as §1, with “Conventional methods were used to construct the buffer and subsequent processes (Kim, H. J. et al. Nuclear Acids Res. 46, 6544-6560 (2018)).” left out

CNA [2] = details: SPR, CNA 1.25-10 nM
Description: Biacore T200 (Cytiva) was used to capture biotin-labeled peptides on the surface of Series S Sensor Chip SA (Cytiva). […] Each cycle was performed at 25° C. with 120 seconds of contact and 240 seconds of dissociation at a flow rate of 30 μl/min. The kinetics of the interaction were analyzed using BIAvaluation 3.2 RC1 (Cytiva).

CNA [3] = details: biotin-labeled peptides
Description: (§7) A His-pulldown assay was performed with 0.5 ml of IP150 buffer containing 0.5 mM EDTA. His-tagged CNA and GST-tagged peptides were mixed and captured on Ni-NTA agarose beads (Qiagen, Hilden, Germany). The beads were washed three times with binding buffer, and the proteins were analyzed by Western blotting. GST-tagged peptides were pulled down using Glutathione Sepharose™ 4 Fast Flow (Cytiva, Marlborough, MA, USA), and biotin-labeled peptides were pulled down using Streptavidin Agarose Resin (Thermo Fisher Scientific).

CNA [4] = assay: Ka (1/MS)
Description: (§2) Table printed on a drawing sheet, FIG. 7G
Head of the field: Ka (1/MS)
(§3) FIG. 7A is the sequence of the CABIN1 peptide with a threonine to valine substitution (TV). […] In FIG. 7C, a luciferase reporter assay was performed to measure NFAT transcriptional activity in Jurkat T cells expressing GST-tagged CABIN1 peptides under PMA and ionomycin treatment (n=3). […] CNA bound to the peptide and phosphorylated threonine were detected by Western blotting. In FIG. 7E, phosphorylation of the 9th threonine of the CABIN1 peptide (threonine 2154 of full-length CABIN1) was detected by LC-MS/MS in Jurkat T cells. In FIG. 7F, an in vitro pull-down assay was performed using streptavidin-coupled agarose beads. CNA bound to the biotinylated peptide was detected with a His antibody. VEET peptide was used as a negative control. In FIG. 7G, CNA binding to biotinylated CABIN1 peptide according to the presence or absence of phosphorylation of the 9th threonine was measured by SPR. CNA concentration ranges are 1.25, 2.5, 5, and 10 nM. The kinetics of the interaction were calculated using the data of the CABIN1 peptide-captured cells minus the negative control peptide-captured cell. The values shown are mean±standard deviation. RU: […], NC: negative control.
(§4) First copying reader's note: SPR binding kinetics of the peptides to CNA; each cell holds the value together with its ± deviation. […]

CNA [5] = assay: Kd (1/S)
Description: as §2
Head of the field: Kd (1/S)
as §3, §4

CNAβ2 [6] = target: T2, CNAβ2 (Homo sapiens, UniProt P16298); assay: Mammalian two-hybrid assay (GAL4 DBD-peptides, VP16 AD-CNAβ2, pG5-luc) in HEK293T cells; format: cell-based
T2 construct: expressed in transfected cells; host or cells: HEK293T
Description: (§5) To measure the transcriptional activity of NFAT, Jurkat T cells were cotransfected with GST-tagged peptides and NFAT-luc by electroporation. After 24 hours, the cells were pretreated with 0.5 μM FK506 for 1 hour and then treated with 40 nM PMA and 1 μM ionomycin for 8 hours. For mammalian two-hybrid assay, HEK293T cells were cotransfected with GAL4 DBD-tagged CABIN1, VIVIT, chimeric, and substituted peptides, VP16 activation domain-tagged CNAβ2, and pG5-luc (a luciferase reporter plasmid containing the GAL4 reaction promoter) for 24 hours. Harvested cells were lysed with luciferase assay lysis buffer (17 mM KH2PO4, 183 mM K2HPO4, pH 7.8, 0.2% [v/v] Triton X-100) and sonicated briefly. The luciferase activity against each cell lysate was measured using Infinite M200 (Tecan, Männedorf, and Switzerland). In addition, the expression level of the transfected protein was confirmed by Western blotting.

ERK2 = target: T3, ERK2 (Homo sapiens, UniProt P28482); assay: In vitro kinase assay; format: biochemical; details: purified GST-tagged peptide
T3 construct: purchased Proqinase GmbH (Freiburg, Germany)
Description: (§6) Purified GST-tagged peptides were used for the in vitro kinase assay using activated recombinant kinase obtained from Proqinase GmbH (Freiburg, Germany). Kinase reactions were induced in reaction buffer (50 mM HEPES-NaOH, pH 7.5, 3 mM MgCl2, 3 mM MnCl2, 3 μM sodium orthobanadate, 1 mM dithiothreitol, 50 μM unlabeled ATP, 5 μCi 32P-γ-ATP) for 1 hour at 30° C. The reaction was stopped by the addition of 5× sample buffer, and proteins were isolated using SDS-PAGE. The gels were stained with Coomassie Brilliant Blue, dried, and developed on X-ray film.

JNK1 = target: T4, JNK1 (Homo sapiens, UniProt P45983); assay: In vitro kinase assay; format: biochemical; details: purified GST-tagged peptide
T4 construct: purchased Proqinase GmbH (Freiburg, Germany)
Description: as §6

p38a [7] = target: T1, p38a; assay: In vitro kinase assay; format: biochemical; details: purified GST-tagged peptide
Description: as §6

CNAβ2 [8] = target: T2, CNAβ2; assay: Immunoprecipitation assay of Flag-CNAβ2 and tagged peptides in HEK293T cells; format: cell-based
Description: as §1

CNA [9] = assay: In vitro His-pull down assay with purified protein; format: binding
Description: as §7

[10] = tested on: NFAT transcriptional activity; assay: NFAT luciferase reporter assay in Jurkat T cells expressing GST-tagged peptides; format: cell-based; details: PMA and ionomycin treatment
Description: as §5

T2 sequence (P63098 2-170 partner limits assumed, other chains not shown): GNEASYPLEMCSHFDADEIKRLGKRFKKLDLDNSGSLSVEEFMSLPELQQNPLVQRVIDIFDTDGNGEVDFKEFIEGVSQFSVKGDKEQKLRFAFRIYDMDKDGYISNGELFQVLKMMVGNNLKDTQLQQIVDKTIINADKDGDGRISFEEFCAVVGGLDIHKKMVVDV
T1 sequence (Q16539 whole entry): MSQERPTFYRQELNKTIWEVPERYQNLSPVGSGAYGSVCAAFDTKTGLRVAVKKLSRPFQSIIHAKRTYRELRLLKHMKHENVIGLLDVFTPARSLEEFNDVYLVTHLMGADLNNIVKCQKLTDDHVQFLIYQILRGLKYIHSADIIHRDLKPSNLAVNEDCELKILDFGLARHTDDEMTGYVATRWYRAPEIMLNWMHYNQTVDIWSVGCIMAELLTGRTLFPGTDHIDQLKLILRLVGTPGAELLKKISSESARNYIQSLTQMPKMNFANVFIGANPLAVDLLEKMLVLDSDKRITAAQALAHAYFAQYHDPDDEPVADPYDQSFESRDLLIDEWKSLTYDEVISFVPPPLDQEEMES
T3 sequence (P28482 whole entry): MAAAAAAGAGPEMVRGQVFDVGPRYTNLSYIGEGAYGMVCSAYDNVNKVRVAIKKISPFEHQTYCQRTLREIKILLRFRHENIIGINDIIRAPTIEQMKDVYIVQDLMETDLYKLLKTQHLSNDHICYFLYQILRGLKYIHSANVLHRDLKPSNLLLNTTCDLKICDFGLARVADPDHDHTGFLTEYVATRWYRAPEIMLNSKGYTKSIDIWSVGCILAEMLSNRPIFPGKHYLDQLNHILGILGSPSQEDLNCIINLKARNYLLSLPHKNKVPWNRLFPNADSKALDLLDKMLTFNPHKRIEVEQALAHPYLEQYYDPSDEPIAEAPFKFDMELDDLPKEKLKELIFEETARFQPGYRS
T4 sequence (P45983 whole entry): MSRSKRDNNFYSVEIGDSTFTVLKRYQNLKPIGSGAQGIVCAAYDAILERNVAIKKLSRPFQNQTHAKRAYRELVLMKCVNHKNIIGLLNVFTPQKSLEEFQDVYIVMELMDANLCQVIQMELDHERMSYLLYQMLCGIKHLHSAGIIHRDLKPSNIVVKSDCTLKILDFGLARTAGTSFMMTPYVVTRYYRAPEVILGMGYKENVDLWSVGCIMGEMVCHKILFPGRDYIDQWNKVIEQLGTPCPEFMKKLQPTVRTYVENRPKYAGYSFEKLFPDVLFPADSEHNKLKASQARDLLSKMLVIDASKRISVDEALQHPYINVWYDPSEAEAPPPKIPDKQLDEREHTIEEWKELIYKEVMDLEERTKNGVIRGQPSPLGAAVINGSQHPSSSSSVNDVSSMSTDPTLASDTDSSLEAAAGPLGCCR

COC(=O)CNC(=O)C(=O)OC [DMOG, dimethyloxalylglycine]
interaction between CABIN1 peptide and CNA (Jurkat T cells; DMOG dose-dependent 12 hours or 500 μM over time): had no effect on the interaction between CABIN1 peptide and CNA | HIF-1α stabilization (Jurkat T cells; positive control for DMOG treatment): stabilized HIF-1α

Cc1ccccc1C(=O)c1ccc(Nc2ccc(Br)cc2N)cc1Cl [EO 1428]
binding affinity of CABIN1 peptide for CNA (p38a [1]): reducing binding affinity for CNA | phosphorylation of the CABIN1 peptide (p38a [1]): significantly reduced phosphorylation of the CABIN1 peptide

Biotin-AAAMAGFPPEITVTPP {pTHR} P [phosphorylated CABIN1-L-1]
increase of binding affinity to CNA, phosphorylated vs unphosphorylated CABIN1 peptide (CNA [2]; listed as phosphorylated CABIN1 peptide): about three times | increase of binding affinity to CNA, phosphorylated vs unphosphorylated CABIN1 peptide (CNA [2]; listed as phosphorylated CABIN1 peptides): approximately three-fold | affinity for CNA (pull-down) (CNA [3]): dramatically increased the affinity for CNA

MAGFPPEITVTPPTP [CABIN1-L-1] [listing 1 of 2 here]
association rate constant (kon) (CNA [4]): 2613.3±421.5 1/MS | dissociation rate constant (koff) (CNA [5]): 1.31e-3±6.1e-5 1/S

MAGFPPEITVTPPTP [CABIN1-L-1] [listing 2 of 2 here]
binding to CNA (CNAβ2 [6]; GAL4 DBD-tagged peptides, VP16 activation domain-tagged CNA, HEK293T): significantly stronger affinity for CNA than CABIN1-14

PVIVITPPTP [VIVIT PPTP]
improvement of interaction with CNA, VIVIT PPTP vs. VIVIT 10-mer (CNAβ2 [6]; C-terminus PPTP sequence): 4.76 fold | improvement of interaction with CNA, VIVIT PPTP vs. L-1-2 WT (CNAβ2 [6]; N-terminus PVIVIT): 1.93 fold | phosphorylation by ERK2 (ERK2): phosphorylate | phosphorylation by JNK1 (JNK1): phosphorylate | phosphorylation by p38a (p38a [7]): phosphorylate

T6V: CABIN1 peptide with threonine 6 (threonine 2151 of full-length CABIN1) replaced with valine (PEITVVPPTP; left off: a dimerising Fc or GST; small tags and cut ends)
interaction with CNA in cells (CNAβ2 [8]): loss of interaction between the CABIN1 peptide and CNA in cells and in vitro | binding to CNA in vitro (CNA [9]): loss of interaction between the CABIN1 peptide and CNA in cells and in vitro

T9V: CABIN1 peptide with threonine 9 (threonine 2154 of full-length CABIN1) replaced with valine (PEITVTPPVP; left off: a dimerising Fc or GST; small tags and cut ends)
interaction with CNA in cells (CNAβ2 [8]): loss of interaction in cell experiments | NFAT transcriptional activity (luciferase activity) [10]: restored the transcriptional activity of NFAT inhibited by the wild-type CABIN1 peptide more efficiently than the T6V substitution
